Experimental data as given in patent publication US20220047507A1, “MELFLUFEN DOSAGE REGIMENS FOR CANCER” (ONCOPEPTIDES AB, priority 2015, published 2022).
Where “and” joins values, the source holds several entries; their conditions need not be identical. Equal entries are not always repeated.

Legend:
[1] = system: relapsed-refractory multiple myeloma (RRMM) patients; assay: Efficacy in patients with RRMM, Example 2a; assay type: in vivo, human
Protocol: (§1) Example 2: An open label single arm extension on the dose of 40 mg over 30 minutes of Example 1. Intravenous melflufen was administered over 30 minutes on Day 1 of a 21-day cycle or 28-day cycle (in combination with 40 mg dexamethasone (oral or intravenous) treatment on Days 1, 8 and 15) for at least 2 cycles, and up to the stated number of cycles. The cycle length was extended during the Example 2 Clinical Trial from 21 to 28 days per a protocol amendment to allow for a better recovery of neutrophils and thrombocytes before a new cycle is initiated.
(§2) Example 2a results are from a data cut-off of time point (a). Example 2b results are from a data cut-off of time point (bi) for the efficacy data, which was approximately 12 months after time point (a); and from a data cut-off of time point (bii) for the safety data, which was approximately 10 months after time point (a).
By the data cut-off point for Example 2a, 38 patients with relapsing MM had been dosed with 40 mg of melflufen hydrochloride (the 40 mg dosage excludes the mass of the salt component) administered over 30 minutes every 3 weeks (21 days) in combination with weekly dexamethasone (day 1, 8 and 15). 162 doses of melflufen were administered in total. The median number of cycles initiated was 3 (1-13) and the median duration of treatment was 13 weeks (2-51). The mean dose intensity was 96% (77-100). By the data cut-off point, ten patients were still in treatment, 2 had completed treatment and 26 patients discontinued from treatment (15 due to AEs, 8 due to PD, 2 deaths and 1 for other reasons). Twenty-seven patients were still in the study (10 patients in treatment and 17 in follow-up), while 11 patients were off study (8 patients due to death, 1 due to PD, 1 withdrew consent and 1 lost in follow-up).
Twenty-seven patients were evaluable for efficacy (per the protocol, these patients had received at least two cycles of melflufen and had adequate follow-up assessments). 11 patients were not evaluable for response due to rapid early progression (7), early termination due to adverse events (3) or too early to assess (1).

[2] = system: relapsed-refractory multiple myeloma (RRMM) patients; assay: Efficacy in patients with RRMM, Example 2b, time point (bi); assay type: in vivo, human
Protocol: as §1, §2
By the data cut-off point (bi), […] (the 40 mg dosage excludes the mass of the salt component) administered over 30 minutes every 3 weeks (21 days) in combination with weekly dexamethasone (day 1, 8 and 15) or every 4 weeks (28 days) in combination with weekly dexamethasone (day 1, 8, 15 and 22).
[…] 10 patients were not evaluable for efficacy evaluation due to rapid early progression (8), or early termination due to adverse events (2).

[3] = Evaluable ≥ 2 cycles, n 27, listed as Melflufen
[4] = Number of refractory agents 0, Example 2a (n = 27)
[5] = Number of refractory agents 1, Example 2a (n = 27)
[6] = Number of refractory agents 2, Example 2a (n = 27)
[7] = Number of refractory agents 3, Example 2a (n = 27)
[8] = Number of refractory agents 4, Example 2a (n = 27)
[9] = Pomalidomide refractory, Example 2a, 27 evaluable
[10] = refractory status None, Example 2a, 27 evaluable
[11] = refractory status PI + IMiD + Alkylator, Example 2a, 27 evaluable
[12] = Evaluable ≥ 2 cycles, n 30, listed as Melflufen
[13] = Pomalidomide refractory, Example 2b, efficacy evaluable N = 29
[14] = Pomalidomide refractory, Example 2b, treated patients N = 39
[15] = Triple refractory (2 PI/ImiD + 1 ImiD/PI), Example 2b, treated patients N = 39
[16] = refractory status Alkylator, Example 2b, treated patients N = 39
[17] = refractory status Cyclophosphamide, Example 2b, efficacy evaluable N = 29
[18] = refractory status Cyclophosphamide, Example 2b, treated patients N = 39
[19] = refractory status High dose melphalan, Example 2b, efficacy evaluable N = 29
[20] = refractory status High dose melphalan, Example 2b, treated patients N = 39
[21] = refractory status IMiD, Example 2b, treated patients N = 39
[22] = refractory status Low dose melphalan, Example 2b, efficacy evaluable N = 29
[23] = refractory status Low dose melphalan, Example 2b, treated patients N = 39
[24] = refractory status None, Example 2b, efficacy evaluable N = 29
[25] = refractory status None, Example 2b, treated patients N = 39
[26] = refractory status PI + IMiD + Alkylator, Example 2b, efficacy evaluable N = 29
[27] = refractory status PI + IMiD + Alkylator, Example 2b, treated patients N = 39
[28] = refractory status PI + IMiD, Example 2b, treated patients N = 39
[29] = refractory status PI, Example 2b, treated patients N = 39

CCOC(=O)[C@H](Cc1ccc(F)cc1)NC(=O)[C@@H](N)Cc1ccc(N(CCCl)CCCl)cc1.Cl [melflufen, L-Melphalanyl-4-fluoro-L-phenylalanine ethyl ester]
Clinical Benefit Rate (CBR) ([1]; Evaluable ≥ 1 cycle, n 35): 43%
Minimal Response (MR), patients ([1]; Evaluable ≥ 1 cycle, n 35): 4
Overall Response Rate (ORR) ([1]; Evaluable ≥ 1 cycle, n 35): 31%
Stable Disease (SD), patients ([1]; Evaluable ≥ 1 cycle, n 35): 12
Very Good Positive Response (PR), patients ([1]; Evaluable ≥ 1 cycle, n 35): 2
Clinical Benefit Rate (CBR) ([1]; Evaluable ≥ 2 cycles, n 27): 56%
Minimal Response (MR), patients ([1]; Evaluable ≥ 2 cycles, n 27): 4
Overall Response Rate (ORR) ([1]; Evaluable ≥ 2 cycles, n 27): 41%
Positive Response (PR), patients ([1]; Evaluable ≥ 2 cycles, n 27): 9
Progressive Disease (PD), patients ([1]; Evaluable ≥ 2 cycles, n 27): 1
Stable Disease (SD), patients ([1]; Evaluable ≥ 2 cycles, n 27): 11
Very Good Positive Response (PR), patients ([1]; Evaluable ≥ 2 cycles, n 27, 40 mg over 30 min + dexamethasone): 2
Clinical Benefit Rate (CBR) [1, 3]: 56%
Overall Response Rate (ORR) [1, 3]: 41%
median duration of response (DOR) ([1]; Example 2a, 4 events in 11 responding patients): 9.6 months
median progression free survival (PFS) ([1]; Example 2a, 13 events in 27 patients): 9.4 months
hazard ratio for melflufen compared to pomalidomide (PFS) ([1]; Example 2a, all treated n=38 vs published pomalidomide trial): 0.68 (0.44-1.05)
CBR(≥MR) [1, 4]: (100) %
ORR (≥PR) [1, 4]: (100) %
CBR(≥MR) [1, 5]: (54) %
ORR (≥PR) [1, 5]: (38) %
CBR(≥MR) [1, 6]: (57) %
ORR (≥PR) [1, 6]: (43) %
CBR(≥MR) [1, 7]: (63) %
ORR (≥PR) [1, 7]: (44) %
CBR(≥MR) [1, 8]: (71) %
ORR (≥PR) [1, 8]: (43) %
CRR (≥MR) [1, 9]: (50) %
ORR (≥PR) [1, 9]: (30) %
reduction in risk of death over 16 months compared to pomalidomide ([1]; RRMM patient population, Example 2a): 32%
CRR (≥MR) ([1]; Triple refractory (2 PI/ImiD + 1 ImiD/PI), Example 2a, 27 evaluable): (60) %
best response of minimal response (MR) or better, n patients ([1]; of 27 evaluable): 15
confirmed PR, n patients ([1]; of 27 evaluable): 11
CRR (≥MR) ([1]; refractory status Alkylator, Example 2a, 27 evaluable): (64) %
CRR (≥MR) ([1]; refractory status IMiD, Example 2a, 27 evaluable): (52) %
CRR (≥MR) [1, 10]: (100) %
ORR (≥PR) [1, 10]: (100) %
CRR (≥MR) [1, 11]: (44) %
ORR (≥PR) [1, 11]: (33) %
CRR (≥MR) ([1]; refractory status PI + IMiD, Example 2a, 27 evaluable): (44) %
CRR (≥MR) ([1]; refractory status PI, Example 2a, 27 evaluable): (47) %
CRR (≥MR) ([2]; Antibody refractory, Example 2b, efficacy evaluable N = 29): (50)+ %
CRR (≥MR) ([2]; Antibody refractory, Example 2b, treated patients N = 39): (33) %
Clinical Benefit Rate (CBR) ([2]; Evaluable ≥ 1 cycle, n 40): 50%
Minimal Response (MR), patients ([2]; Evaluable ≥ 1 cycle, n 40): 8
Overall Response Rate (ORR) ([2]; Evaluable ≥ 1 cycle, n 40): 30%
Positive Response (PR), patients ([2]; Evaluable ≥ 1 cycle, n 40): 9
Progressive Disease (PD), patients ([2]; Evaluable ≥ 1 cycle, n 40): 9
Stable Disease (SD), patients ([2]; Evaluable ≥ 1 cycle, n 40): 11
Very Good Positive Response (PR), patients ([2]; Evaluable ≥ 1 cycle, n 40): 3
Clinical Benefit Rate (CBR) ([2]; Evaluable ≥ 2 cycles, n 30): 56% and 63%
Overall Response Rate (ORR) ([2]; Evaluable ≥ 2 cycles, n 30): 41% and 40%
Positive Response (PR), patients ([2]; Evaluable ≥ 2 cycles, n 30): 9
Progressive Disease (PD), patients ([2]; Evaluable ≥ 2 cycles, n 30): 1
Stable Disease (SD), patients ([2]; Evaluable ≥ 2 cycles, n 30): 10
Very Good Positive Response (PR), patients ([2]; Evaluable ≥ 2 cycles, n 30, 40 mg over 30 min + dexamethasone): 2
Very Good Positive Response (PR), patients ([2]; Evaluable ≥ 2 cycles, n 30, 40 mg over 30 min + dexamethasone, listed as Melflufen): 3
Clinical Benefit Rate (CBR) [2, 12]: 63%
Minimal Response (MR), patients [2, 12]: 7
Overall Response Rate (ORR) [2, 12]: 40%
median duration of response (DOR) ([2]; Example 2b, 11 events in 12 responding patients): 7.7 months
median progression free survival (PFS) ([2]; Example 2b, ITT-population (n=40)): 4.3 months
median progression free survival (PFS) ([2]; Example 2b, PP-population (efficacy evaluable, n=30)): 7.9 months
increase in PFS compared to pomalidomide+dexamethasone and carfilzomib ([2]; Example 2b, efficacy evaluable population): around 4 months
CRR (≥MR) [2, 13]: (55) %
ORR (≥PR) [2, 13]: (36) %
CRR (≥MR) [2, 14]: (44) %
ORR (≥PR) [2, 14]: (25) %
CRR (≥MR) ([2]; Triple refractory (2 PI/ImiD + 1 ImiD/PI), Example 2b, efficacy evaluable N = 29): (70) %
CRR (≥MR) [2, 15]: (44) %
ORR (≥PR) [2, 15]: (25) %
best response of minimal response (MR) or better, n patients ([2]; of 30 evaluable): 15 and 19
partial response (PR) or better, n patients ([2]; of 30 evaluable): 12
best response of PR or better, n patients ([2]; of the 8 patients refractory to an alkylator as their last line of treatment): 5
CRR (≥MR) ([2]; refractory status Alkylator, Example 2b, efficacy evaluable N = 29): (73) %
CRR (≥MR) [2, 16]: (55) %
ORR (≥PR) [2, 16]: (36) %
CRR (≥MR) [2, 17]: (80) %
ORR (≥PR) [2, 17]: (60) %
CRR (≥MR) [2, 18]: (53) %
ORR (≥PR) [2, 18]: (40) %
CRR (≥MR) [2, 19]: (100) %
ORR (≥PR) [2, 19]: (67) %
CRR (≥MR) [2, 20]: (100) %
ORR (≥PR) [2, 20]: (33) %
CRR (≥MR) ([2]; refractory status IMiD, Example 2b, efficacy evaluable N = 29): (63) %
CRR (≥MR) [2, 21]: (47) %
ORR (≥PR) [2, 21]: (28) %
CRR (≥MR) [2, 22]: (60) %
ORR (≥PR) [2, 22]: (40) %
CRR (≥MR) [2, 23]: (67) %
ORR (≥PR) [2, 23]: (33) %
CRR (≥MR) [2, 24]: (100) %
ORR (≥PR) [2, 24]: (100) %
CRR (≥MR) [2, 25]: (100) %
ORR (≥PR) [2, 25]: (100) %
CRR (≥MR) [2, 26]: (44) %
ORR (≥PR) [2, 26]: (33) %
CRR (≥MR) [2, 27]: (40) %
ORR (≥PR) [2, 27]: (20) %
CRR (≥MR) ([2]; refractory status PI + IMiD, Example 2b, efficacy evaluable N = 29): (59) %
CRR (≥MR) [2, 28]: (46) %
ORR (≥PR) [2, 28]: (25) %
CRR (≥MR) ([2]; refractory status PI, Example 2b, efficacy evaluable N = 29): (63) %
CRR (≥MR) [2, 29]: (50) %
ORR (≥PR) [2, 29]: (25) %
